Measured values published in PubChem BioAssay AID2060891 (Molecular Pharmacology Branch, DTP, NCI, 2025).
pIC50: −log10 of the molar value. Values joined by “and” are separate entries in the source; they are usually repeats but may differ in a detail not shown here. Equal values may be shown once.

Test system: K98450-129-R-PDC complex spheroid growth, percent test/control
Experiment: Anticancer human tumor K98450-129-R-PDC patient-derived colon adenocarcinoma cell line growth inhibition [RAS]
Details: for viability, T/C: stronger effect = lower value
Source text: RAS pathway inhibitors in Combinations in Complex Spheroids
A high-throughput screen of multi-cell type tumor spheroids was designed to identify active combinations of RAS pathway inhibitors and targeted small molecules. Complex spheroids include a stromal component modeled by human endothelial cells (HUVEC) and fibroblasts modeled by human mesenchymal stem cells (MSCs). The concentration ranges selected for each drug and investigational agent were based upon clinically achievable concentrations if the clinical Cmax of the agent was known.
Compounds. The drugs and investigational agents: abemaciclib (NSC768073), cobimetinib (NSC768068), divarasib (GDC6063, NSC841802), docetaxel (NSC628503), GDC-1971 (RLY-1971, NSC841576), gemcitabine (NSC613327), inavolisib (NSC800729), ipatasertib (NSC767898), KB-0742 (NSC834161), MRTX-1133 (NSC836407), osimertinib (NSC779217), RMC-4630 (NSC839698), RMC-6236 (NSC851965), RMC-6291 (NSC852671), Ro-3306 (NSC812927), sapanisertib (NSC764658), SN-38 (NSC673596), staurosporine (NSC755774), SY5609 (NSC837396), and tovorafenib (DAY101, NSC766906), were obtained from the National Cancer Institute (NCI) Developmental Therapeutics Program Chemical Repository. The FDA-approved anticancer drug set is available from the NCI Developmental Therapeutics Program. […] The stock solutions were prepared in dimethyl sulfoxide (DMSO, Sigma-Aldrich, St. Louis, MO, cat. D2650) at 800-fold the tested concentration and stored at -70 degrees C prior to their use. All drugs and investigational agents were tested over a range starting from a high concentration at or near the clinical Cmax and decreasing in half-log increments. If the clinical Cmax for an agent had not been determined, the highest concentration tested was 10 microM.
Cell Culture. All cells were maintained in an incubator at 37 degrees C and 5% CO2 with 95% humidity. The PDC lines were cultured according to standard operating procedures established by the NCI PDMR. All PDCs were thawed and cultured in Matrigel-coated flasks prepared with a working solution of 1X Ham's F-12 nutrient mix, without supplementation (Invitrogen, Waltham, MA, cat. 11765054), 100 U/mL penicillin-streptomycin (Invitrogen, cat. 15140122), and 2.5% Matrigel (Corning Inc., Corning, NY, cat. 354248) for the first three passages. The 362531-283-R-J2-PDC and 782815-120-R-J1-PDC lines were cultured in 6C/Colon 1B media, which includes advanced DMEM/F-12 (Thermo Fisher Scientific, cat. 12634028), 10 mM HEPES (Thermo Fisher Scientific, cat. 15630080), 1X GlutaMAX supplement (Thermo Fisher Scientific, cat. 35050061), 0.1 mg/mL primocin (InvivoGen, San Diego, CA, cat. ant-pm-2), 10% defined fetal bovine serum, heat inactivated (HyClone Laboratories Inc., Logan, UT, cat. SH30070.03HI), 50% L-WRN conditioned media (ATCC, cat. CRL-3276), 1.25 mM N-Acetyl-L-cysteine (Sigma-Aldrich, cat. A9165), 10 mM nicotinamide (Sigma-Aldrich, cat. N0636), 1X B-27 supplement (Thermo Fisher Scientific, cat. 17504044), 1X N-2 supplement (Thermo Fisher Scientific, cat. 17502048), 50 ng/mL human EGF (Thermo Fisher Scientific, cat. PHG0311), and 10 microM Y-27632 dihydrochloride (Tocris Bioscience, cat. 1254). The K12877-001-R-J1-PDC line was cultured in 6I media, which includes all 6C/Colon 1B media plus 10 ng/mL human FGF-10 (PeproTech, cat. 100-26), 1 ng/mL human FGF-2 (PeproTech, cat. 100-18B), 1 µM prostaglandin E2 (Tocris Bioscience, cat. 2296), […] hydrocortisone (Sigma-Aldrich, cat. H4001), and […] bovine insulin (Sigma-Aldrich, cat. I6634). The K86415-001-R-J1-PDC line was cultured in 6D media, which includes all 6C/Colon 1B media components minus the L-WRN conditioned media. The 485176-168-R4-J1-PDC was cultured in PANC media, which includes all 6C/Colon 1B media plus 100 ng/mL human FGF-10 (PeproTech, cat. 100-26), 500 nM SB-431542 (Selleckchem, cat. S1067), and 10 nM gastrin (Tocris Bioscience, cat. 3006). […]

[1] = compound alone, run of 06/10/2024
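Further: spheroids exposed to agents for seven days before the viability readout.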
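Wherever viability, T/C is given: luminescence used as a proxy for viable cell amount.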

C#Cc1c(F)ccc2cc(O)cc(-c3ncc4c(N5CC6CCC(C5)N6)nc(OCC56CCCN5CC(F)C6)nc4c3F)c12 (stereo unspecified)
viability, T/C (compound 0.0316 µM): 106% [middle of 8 runs]
viability, T/C (compound 0.1 µM): 105% [middle of 7 runs]
viability, T/C (compound 0.316 µM): 105% [middle of 8 runs]
viability, T/C (compound 1 µM): 102% [middle of 8 runs]
viability, T/C (compound 3.16 µM): 102% [middle of 8 runs]
viability, T/C (compound 10 µM): 95.1% [middle of 8 runs]
pIC50 [1]: < 5.00

C=CC(=O)N1CCN(c2nc(OCC3CCCN3C)nc3c(F)c(-c4nc(N)cc(C)c4C(F)(F)F)c(Cl)cc23)C(C)C1 (stereo unspecified)
viability, T/C (compound 0.00316 µM): 97.9% [middle of 12 runs]
viability, T/C (compound 0.01 µM, compound 0.0316 µM): 70.9%
viability, T/C (compound 0.01 µM, compound 0.1 µM): 59.3%
viability, T/C (compound 0.01 µM, compound 0.316 µM): 39.6%
viability, T/C (compound 0.01 µM, compound 1 µM): 29%
viability, T/C (compound 0.0316 µM, compound 0.00316 µM): 71.2%
viability, T/C (compound 0.0316 µM, compound 0.01 µM): 65.5%
viability, T/C (compound 0.0316 µM, compound 0.1 µM): 51.4%
viability, T/C (compound 0.0316 µM, compound 0.316 µM): 42.2%
viability, T/C (compound 0.0316 µM, compound 1 µM): 28.1%
viability, T/C (compound 0.0316 µM): 71.5% [middle of 13 runs]
viability, T/C (compound 0.1 µM, compound 0.00316 µM): 54.4%
viability, T/C (compound 0.1 µM, compound 0.01 µM): 52.5%
viability, T/C (compound 0.1 µM, compound 0.0316 µM): 56.5%
viability, T/C (compound 0.1 µM, compound 0.316 µM): 41.4%
viability, T/C (compound 0.1 µM, compound 1 µM): 30.8%
viability, T/C (compound 0.1 µM): 53.1% [middle of 13 runs]
viability, T/C (compound 0.316 µM, compound 0.00316 µM): 40.9%
viability, T/C (compound 0.316 µM, compound 0.01 µM): 38.6%
viability, T/C (compound 0.316 µM, compound 0.0316 µM): 43.2%
viability, T/C (compound 0.316 µM, compound 0.1 µM): 38.7%
viability, T/C (compound 0.316 µM, compound 1 µM): 31.3%
viability, T/C (compound 0.316 µM): 40.2% [middle of 13 runs]
viability, T/C (compound 1 µM, compound 0.00316 µM): 31.1%
viability, T/C (compound 1 µM, compound 0.01 µM): 35.5%
viability, T/C (compound 1 µM, compound 0.0316 µM): 31.5%
viability, T/C (compound 1 µM, compound 0.1 µM): 30.9%
viability, T/C (compound 1 µM, compound 0.316 µM): 33.1%
viability, T/C (compound 1 µM): 34% [middle of 13 runs]
IC50 [1]: 148 nM [middle of 8 runs]
IC50 (curve of compound): 144 nM [middle of 4 runs]

C=CC(=O)Nc1cc(Nc2nccc(-c3cn(C)c4ccccc34)n2)c(OC)cc1N(C)CCN(C)C
viability, T/C (compound 0.00316 µM): 102% (2×) and 95.4% and 104%
viability, T/C (compound 0.01 µM): 96.2% [middle of 4 runs]
viability, T/C (compound 0.1 µM): 100% [middle of 4 runs]
viability, T/C (compound 0.316 µM): 70.7% [middle of 4 runs]
viability, T/C (compound 1 µM): 36% [middle of 4 runs]
IC50 (curve of compound): 633 nM [middle of 4 runs]

CC(C)n1nc(-c2ccc3oc(N)nc3c2)c2c(N)ncnc21
viability, T/C (compound 0.000316 µM): 106% [middle of 4 runs]
viability, T/C (compound 0.001 µM): 90.9% [middle of 4 runs]
viability, T/C (compound 0.00316 µM): 93.6% [middle of 4 runs]
viability, T/C (compound 0.01 µM): 96.8% [middle of 4 runs]
viability, T/C (compound 0.0316 µM): 79.8% [middle of 4 runs]
viability, T/C (compound 0.1 µM): 78.4% (2×) and 86.4% and 72.6%
pIC50 (curve of compound): < 7.00
